These results are taken from patent US20240148821A1, “PHARMACEUTICAL USE OF CYCLIC PEPTIDE COMPOUND” (CHUGAI SEIYAKU KABUSHIKI KAISHA, priority 2021, published 2024).

The test system of assay [1] is various cancer cell lines (Ras mutation or amplification). Put plainly: Measurement of cell growth inhibitory activity against various cancer cell lines (CellTiter-Glo). Format: cell-based, human. Background: ATP-based viability assays read luminescence as a measure of living cells.
Method: Various cancer cell lines used were purchased from commercial suppliers. […] The cell suspension and culture medium supplemented with serum were dispensed to a plate containing the test compounds at 40 μL (384 well plate) or 200 μL (96 well plate) per well and incubated in a carbon dioxide gas incubator. […] Six days or seven days after the start of cultivation, 20 μL of CellTiter-Glo (Promega) was added to each well and fluorescence was measured.
The test system of assay [2] is large bowel carcinoma cell line LS 180. Briefly: In vivo antitumor activity, mouse xenograft model, LS 180. The following applies: LS 180 (Colon) xenograft, 7 days. From the text:
(§1) Tumor growth inhibition rate (TGI %)=(1−TV/CV)×100

Assay [3] concerns the target protein-protein interaction between Kras and SOS1 (biotin-tagged human Kras loaded with GDP, His-tagged human SOS1) (Homo sapiens (Human), UniProt P01116, G12D). Briefly: Protein-protein interaction inhibition between Kras and SOS1 (KrasG12D-SOS PPI) using AlphaScreen.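 Further: kras produced in E. coli, Ni-coupled donor beads and streptavidin acceptor beads, excitation 680 nm with emission detected at 520–620 nm via singlet oxygen transfer.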 In kind it is biochemical. The following applies: AlphaScreen; biotin-tagged human Kras loaded with GDP, His-tagged human SOS1; read-out: KRAS G12D-SOS PPI IC50. On the technique in general: Bead proximity is the source of the signal in Alpha formats.

The test system of assay [4] is Human pancreatic cancer cell line AsPC-1 (G12D mutation Kras). Put plainly: AsPC-1 cell growth inhibition (AsPC-1 CGI). Format: cell-based. The following applies: read-out: AsPC-1 cell growth inhibition, 50% growth inhibitory concentration (IC50 value); 96 hours, CellTiter-Glo, values classified in ranges.
Method: Test compounds were serially dilated with dimethyl sulfoxide, and 200 nL was then dispensed to a U-bottom 96-well plate using Labcyte Echo. […] The cell suspension was dispensed to a. plate containing a test compound at 100 μL per well and incubated at 37° C. in a 5% carbon dioxide gas incubator. 96 hours later, 80 μL of CellTiter-Glo (Promega) was added to each well and fluorescence was measured.
For assay [5], the system named is non-small cell lung cancer cell line NC1-1441 with a KRAS mutation. Put plainly: In vivo antitumor activity, mouse xenograft model, NCI-H441. The following applies: NCI-H441 (NSCLC) xenograft, 14 days.
Source text: as §1

The mark [6] stands for this setting: A4/Fuk, Non-Hodgkin lymphoma, KRAS Amp.
Where [7] appears, read: MIA PaCa-2, Pancreas, KRAS G12C.

Molecules are shown by their SMILES. pIC50: −log10 of the molar value. Numbered stars: 1 amine (or outer) side, 2 acyl side, 3 side chain; on linkers, the order of the positions; unused ones are H or OH. Bridge positions count the residues as written; N and C are the ends. Square brackets hold non-standard residues; d marks the D form. Peptide text beside a SMILES is read from it. * marks the point of attachment. hPhe(3,5-F2-4-CF3) = N[C@@H](CCc1cc(F)c(C(F)(F)F)c(F)c1)C(=O)O; hPhe(3-Cl-4-CF3) = N[C@@H](CCc1ccc(C(F)(F)F)c(Cl)c1)C(=O)O; NMePhe(4-CF3) = CN[C@@H](Cc1ccc(C(F)(F)F)cc1)C(=O)O; NEtPhe(4-Me) = CCN[C@@H](Cc1ccc(C)cc1)C(=O)O; NMePhe(4-Cl) = CN[C@@H](Cc1ccc(Cl)cc1)C(=O)O; NMePhe(4-Me) = CN[C@@H](Cc1ccc(C)cc1)C(=O)O; NMedβ3hAla = C[C@H](CC(=O)[*:2])N(C)[*:1]; NMeGly(cPent) = CN[C@H](C(=O)O)C1CCCC1; NMeGly(cBu) = CN[C@H](C(=O)O)C1CCC1; NMeCha = CN[C@@H](CC1CCCCC1)C(=O)O; Hyp = O=C(O)[C@@H]1C[C@@H](O)CN1; NMeChg = CN[C@H](C(=O)O)C1CCCCC1; NMeI = CC[C@H](C)[C@H](NC)C(=O)O; NMeD = CN[C@@H](CC(=O)O)C(=O)O; NMeL = CN[C@@H](CC(C)C)C(=O)O; NMeV = CN[C@H](C(=O)O)C(C)C; d(β3hA) = C[C@@H](N)CC(=O)O; NMeAbu = CC[C@H](NC)C(=O)O; NPhGly = O=C(O)CNc1ccccc1; Morpholide = C1CN(*)CCO1; NMeA = CN[C@@H](C)C(=O)O; NMeAib = CNC(C)(C)C(=O)O; Piperidide = C1CCN(*)CC1; Pyrrolidide = C1CCN(*)C1; Ac5c = NC1(C(=O)O)CCCC1; Aze = O=C(O)[C@@H]1CCN1; NBuGly = CCCCNCC(=O)O; Sar = CNCC(=O)O

`CC[C@H](C)[C@@H]1NC(=O)[C@H](CC(C)C)N(C)C(=O)C[C@@H](C(=O)N2CCOCC2)N(C)C(=O)[C@H](C2CCCC2)N(C)C(=O)C2(CCCC2)NC(=O)[C@@H]2CCCN2C(=O)[C@H](CCc2ccc(C(F)(F)F)c(Cl)c2)NC(=O)CN(C)C(=O)[C@H](CC2CCCCC2)N(C)C(=O)[C@@H]2CCN2C(=O)[C@H](C)N(C)C1=O` [Compound 926, (5S,8S,11S,15S,18S,23aS,29S,35S,37aS)-8-((S)-sec-butyl)-29-(3-chloro-4-(trifluoromethyl)phenethyl)-35-(cyclohexylmethyl)-18-cyclopentyl-11-isobutyl-5,6,12,16,19,33,36-heptamethyl-15-(morpholine-4-carbonyl)docosahydro-2H,4H-spiro[azeto[2,1-u]pyrrolo[2,1-i][1,4,7,10,13,16,19,22,25,28,31]undecaazacyclotetratriacontine-21,1′-cyclopentan]-4,7,10,13,17,20,23,28,31,34,37(14H,22H)-undecaone] ([NMeL]I[NMeA][Aze][NMeCha][Sar][hPhe(3-Cl-4-CF3)]P[Ac5c][NMeGly(cPent)][NMeD]-Morpholide; lactam N-11): the pIC50 is 8.89 in assay [1] (setting [6]); 8.96 in assay [1] (A549, NSCLC, KRAS G12S); 8.84 in assay [1] (AGS, Stomach, KRAS G12D); 8.48 in assay [1] (AsPC-1, Pancreas, KRAS G12D); 8.10 in assay [1] (KURAMOCHI, Ovary, KRAS Amp); 8.27 in assay [1] (LS 180, Colon, KRAS G12D). The pIC50 in assay [1] (setting [7]) was 8.05; in assay [1] (NCI-H441, NSCLC, KRAS G12V) it was 8.54; in assay [1] (NCI-H929, Myeloma, NRAS G13D), 7.73; in assay [1] (NOMO-1, AML, KRAS G13D) it was 7.54; in assay [1] (SNU-1, Stomach, KRAS G12D), 8.56; in assay [1] (SW480, Colon, KRAS G12V) it was 7.25. The pIC50 in assay [3] is 9.00; in assay [4] it was at least 7.70. Besides, the “TGI (%)” value in assay [2] (15 mg/kg once daily) is 29%; in assay [2] (30 mg/kg once daily), 75%.
With `CCO[C@@H]1C[C@H]2C(=O)NC3(CCCC3)C(=O)N(C)[C@@H](C3CCCC3)C(=O)N(C)[C@H](C(=O)N(C)C)CC(=O)N(C)[C@@H](CC(C)C)C(=O)N[C@@H]([C@@H](C)CC)C(=O)N(C)[C@@H](C)C(=O)N3CC[C@H]3C(=O)N(C)[C@@H](CC3CCCCC3)C(=O)N(C)CC(=O)N[C@@H](CCc3cc(F)c(C(F)(F)F)c(F)c3)C(=O)N2C1` [Compound 1201, (5S,8S,11S,1S,18S,23aS,25R,29S,35S,37aS)-8-((S)-sec-butyl)-35-(cyclohexymethyl)-18-cyclopentyl-29-(3,5-difluoro-4-(trifluoromethyl)phenethyl)-25-ethoxy-11-isobutyl-N,N,5,6,12,16,19,33,36-nonamethyl-4,7,10,13,17,20,23,28,31,34,37-undecaoxotetratriacontahydro-2H,4H-spiro[azeto[2,1-u]pyrrolo[2,1-i][1,4,7,10,13,16,19,22,25,28,31]undecaazacyclotetratriacontine-21,1′-cyclopentane]-15-carboxamide] ([NMeL]I[NMeA][Aze][NMeCha][Sar][hPhe(3,5-F2-4-CF3)][Hyp](Et)[Ac5c][NMeGly(cPent)][NMeD]-NMe2; lactam N-11 (inferred); C-terminus assumed), the pIC50 in assay [1] (setting [6]) was 9.19; in assay [1] (A549, NSCLC, KRAS G12S), 9.60; in assay [1] (AGS, Stomach, KRAS G12D), 9.32; in assay [1] (AsPC-1, Pancreas, KRAS G12D), 9.08; in assay [1] (HEC-151, Endometrium, NRAS G12D), 8.64; in assay [1] (KURAMOCHI, Ovary, KRAS Amp), 8.58. Further, the pIC50 in assay [1] (LS 180, Colon, KRAS G12D) was 8.88; in assay [1] (setting [7]), 8.74; in assay [1] (NCI-H441, NSCLC, KRAS G12V) it was 9.05; in assay [1] (NCI-H929, Myeloma, NRAS G13D) it was 8.34; in assay [1] (NOMO-1, AML, KRAS G13D), 8.31; in assay [1] (PA-1, Ovary, NRAS G12D), 8.94. Moreover, the pIC50 in assay [1] (SW480, Colon, KRAS G12V) was 8.02; in assay [4], at least 7.70. Further, the “TGI (%)” value amounted to 68% in assay [5] (3 mg/kg once daily), 92% in assay [5] (6 mg/kg once daily) and 104% in assay [5] (10 mg/kg once daily).
In the case of `CC[C@H](C)[C@@H]1NC(=O)[C@H](C)N(C)C(=O)C[C@@H](C)N(C)C(=O)[C@H](C2CCC2)N(C)C(=O)C2(CCCC2)NC(=O)CN(c2ccccc2)C(=O)[C@H](CCc2ccc(C(F)(F)F)c(Cl)c2)NC(=O)CN(C)C(=O)[C@H](CC2CCCCC2)N(C)C(=O)CN(C)C(=O)CN(C)C1=O` [Compound 2143] (cyclo([Ac5c][NMeGly(cBu)][NMedβ3hAla][NMeA]I[Sar][Sar][NMeCha][Sar][hPhe(3-Cl-4-CF3)][NPhGly])), the figures for the pIC50 in assay [3] and in assay [4] were 7.39 and under 6.30, respectively.
The like results for `CCCCN1CC(=O)NC2(CCCC2)C(=O)N(C)[C@@H](C2CCCCC2)C(=O)N(C)[C@H](C(=O)N2CCCCC2)CC(=O)N(C)[C@@H](CC(C)C)C(=O)N[C@@H]([C@@H](C)CC)C(=O)N(C)CC(=O)N(C)CC(=O)N(C)[C@@H](CC2CCCCC2)C(=O)N(C)CC(=O)N[C@@H](CCc2ccc(C(F)(F)F)c(Cl)c2)C1=O` [Compound 848] ([NMeL]I[Sar][Sar][NMeCha][Sar][hPhe(3-Cl-4-CF3)][NBuGly][Ac5c][NMeChg][NMeD]-Piperidide; lactam N-11) were, in that order, 7.80 and under 6.30.
On the same counts, the results for `CC[C@H](C)[C@@H]1NC(=O)[C@H](CC(C)C)N(C)C(=O)C[C@@H](C)NC(=O)[C@H]([C@@H](C)CC)N(C)C(=O)C2(CCCC2)NC(=O)[C@@H]2CCCN2C(=O)[C@H](CCc2ccc(C(F)(F)F)c(Cl)c2)NC(=O)CN(C)C(=O)[C@H](Cc2ccc(C)cc2)N(C)C(=O)[C@@H]2CCN2C(=O)[C@H](C)N(C)C1=O` [Compound 1661] (cyclo([Ac5c][NMeI][d(β3hA)][NMeL]I[NMeA][Aze][NMePhe(4-Me)][Sar][hPhe(3-Cl-4-CF3)]P)) are 8.57 and at least 7.70.
The like results for `CC[C@H](C)[C@@H]1NC(=O)[C@H](CC(C)C)N(C)C(=O)C[C@@H](C(=O)N2CCCC2)N(C)C(=O)[C@H]([C@@H](C)CC)N(C)C(=O)C2(CCCC2)NC(=O)[C@@H]2CCCN2C(=O)[C@H](CCc2ccc(C(F)(F)F)c(Cl)c2)NC(=O)CN(C)C(=O)[C@H](Cc2ccc(C(F)(F)F)cc2)N(C)C(=O)[C@@H]2CCN2C(=O)[C@H](C)N(C)C1=O` [Compound 882] ([NMeL]I[NMeA][Aze][NMePhe(4-CF3)][Sar][hPhe(3-Cl-4-CF3)]P[Ac5c][NMeI][NMeD]-Pyrrolidide; lactam N-11) were, in that order, 9.33 and at least 7.70.
For the molecule `CC[C@H](C)[C@@H]1NC(=O)[C@H](CC(C)C)N(C)C(=O)C[C@@H](C(=O)N2CCCC2)N(C)C(=O)[C@H]([C@@H](C)CC)N(C)C(=O)C2(CCCC2)NC(=O)[C@@H]2CCCN2C(=O)[C@H](CCc2cc(F)c(C(F)(F)F)c(F)c2)NC(=O)CN(C)C(=O)[C@H](Cc2ccc(C)cc2)N(CC)C(=O)[C@@H]2CCN2C(=O)[C@H](C)N(C)C1=O` [Compound 1351] ([NMeL]I[NMeA][Aze][NEtPhe(4-Me)][Sar][hPhe(3,5-F2-4-CF3)]P[Ac5c][NMeI][NMeD]-Pyrrolidide; lactam N-11), the pIC50 in assay [3] was 9.09; in assay [4], at least 7.70.
In the case of `CC[C@H](C)[C@@H]1NC(=O)[C@H](CC(C)C)N(C)C(=O)C[C@@H](C)N(C)C(=O)[C@H](CC(C)C)NC(=O)C(C)(C)N(C)C(=O)[C@H](CC(C)C)NC(=O)[C@H](CCc2cc(F)c(C(F)(F)F)c(F)c2)NC(=O)CN(C)C(=O)[C@H](Cc2ccc(Cl)cc2)N(C)C(=O)CN(C)C(=O)CN(C)C1=O` [Compound 687] (cyclo(I[Sar][Sar][NMePhe(4-Cl)][Sar][hPhe(3,5-F2-4-CF3)]L[NMeAib]L[NMedβ3hAla][NMeL])), the pIC50 was 7.80 in assay [3] and under 6.30 in assay [4].
As to `CC[C@H](C)[C@@H]1NC(=O)[C@H](CC(C)C)N(C)C(=O)C[C@@H](C(=O)N2CCCCC2)N(C)C(=O)[C@H](C(C)C)N(C)C(=O)C2(CCCC2)NC(=O)[C@@H]2CCCN2C(=O)[C@H](CCc2ccc(C(F)(F)F)c(Cl)c2)NC(=O)CN(C)C(=O)[C@H](CC)N(C)C(=O)[C@@H]2CCN2C(=O)[C@H](C)N(C)C1=O` [Compound 1752] ([NMeL]I[NMeA][Aze][NMeAbu][Sar][hPhe(3-Cl-4-CF3)]P[Ac5c][NMeV][NMeD]-Piperidide; lactam N-11), the pIC50 was 7.77 in assay [3] and under 6.30 in assay [4].
